Test results taken from publication PMC3741113, “De-Novo Design of Antimicrobial Peptides for Plant Protection” (PLoS ONE, 2013).
Several values for one entry are separate records, joined by “and”; a condition that tells them apart may be missing. Equal entries are not always repeated. Where two headings read alike, the source gives them in different places. Ends that are not written are not given here.

Experiments:
[1] = tested on: Botrytis cinerea; settings: 2% malt extract medium, 1.5–2×10^3 spores/ml, room temperature, 3d, visual screening; lowest concentration with no visible growth; at least two independent replicates
[2] = tested on: Alternaria alternata; settings: 2% malt extract medium, 1.5–2×10^3 spores/ml, room temperature, 3d, OD590 nm; lowest concentration with no visible growth; at least two independent replicates
[3] = tested on: Cladosporium herbarum; settings: 2% malt extract medium, 1.5–2×10^3 spores/ml, room temperature, 3d, visual screening; lowest concentration with no visible growth; at least two independent replicates
[4] = tested on: Clavibacter michiganensis ssp. michiganensis; settings: LB-medium, 27°C
[5] = tested on: Pectobacterium carotovorum ssp. carotovorum; settings: LB-medium, 27°C
[6] = tested on: Xanthomonas vesicatoria; settings: LB-medium, 27°C
[7] = tested on: Pseudomonas syringae pv. tomato; settings: LB-medium, 27°C
[8] = tested on: Pseudomonas syringae pv. syringae; settings: LB-medium, 27°C
[9] = tested on: Pseudomonas corrugata; settings: LB-medium, 27°C
[10] = tested on: Arabidopsis mesophyll protoplasts; test: Phytotoxicity on plant protoplasts; type: cell-based; settings: 1 h incubation, light microscope; for Phytotoxicity: peptide concentration where protoplasts show first signs of cytoplasmic degradation: 0, 10, 100, 200 µg/ml
Experimental: Phytotoxicity was measured on Arabidopsis mesophyll protoplasts prepared from leaves as described in [80]. 80 µl protoplast suspension containing about 5000 protoplasts were incubated with 20 µl peptide solution. Final peptide concentrations were 0, 10, 100 and 200 µg/ml. The phytotoxic effect of antimicrobial peptides was observed after 1 h with a light microscope. Hints to cell death are loss of spherical shape, chloroplast release and/or agglomeration of protoplasts.

[11] = tested on: P. syringae pv. tomato DC3000; settings: peptide concentrations up to 100 µg/ml, sprayed; cfu 30 min after treatment
[12] = tested on: P. syringae; settings: Table S5; 10 µg/ ml peptide; organism P. syringae pv syrimgae [sic]
[13] = tested on: human erythrocytes; test: Hemolytic activity (hemoglobin release); type: cell-based
Experimental: The hemolytic activity of the peptides was evaluated by determining hemoglobin release of suspensions of fresh human erythrocytes at 405 nm. Human red blood cells (Deutscher Blutspendedienst, München, Germany) were centrifuged and washed three times with Tris-buffer (10 mM Tris, 150 mM NaCl, pH 7.4). 80 µl of cells (1.5×10^9 cells/ml) were added to 20 µl of the peptide solution in 96-well plates and incubated for 45 min at 37°C. Final peptide concentrations were 0, 20, 50, 100 and 200 µg/ml. After centrifugation (1,500 g, 5 min, 20°C) 30 µl aliquots of the supernatant were transferred to 96-well plates containing 100 µl of water and released hemoglobin was determined using a microplate reader (OD405 nm). 100% hemolysis was determined with 2% SDS.

[14] = tested on: tested plant pathogens; test: Microdilution assay, activity summarised over several tested plant pathogens; type: cell-based; settings: for active concentrations (MIC): statement over some / the majority of the tested plant pathogens or bacteria
Experimental: In-vitro inhibition assays were performed in sterile flat-bottom 96-well polypropylene-plates (Greiner bio-one, Frickenhausen, Germany). 10 µl (antibacterial assay) or 20 µl (antifungal assay) of each concentration were loaded per well. Fresh bacterial colonies were transferred into LB-medium, grown to an OD600 nm of 0.08–0.1 and diluted 1∶100 with medium. 90 µl of this suspension containing about 10^5 CFU/ml of bacteria were added to each well resulting in final peptide concentrations from 0 to 100 µg/ml. After incubation at 27°C for 1–2d bacterial growth was analyzed by measuring the OD590 nm using a Tecan Genios microplate reader (Crailsheim, Germany).
Spores of plant pathogenic fungi were collected by washing sporulating cultures with water. Spore concentration was determined by haematocytometer and adjusted to 1.5–2×10^3 spores/ml in 2% malt extract medium. 80 µl of fungal spores were added per well resulting in final peptide concentrations from 0 to 100 µg/ml. After incubation at room temperature for 3d on a rotary shaker (300 rpm), fungal growth was determined by measuring the OD590 nm (Alternaria sp.) or by visual screening of the plates (Botrytis sp., Cladosporium sp.). The lowest peptide concentration, where no visible microbial growth could be detected, was determined for each organism-peptide combination and referred to as the minimal inhibitory concentration (MIC). At least two independent replicates were performed.

[15] = tested on: human erythrocytes; settings: cited from earlier work
[16] = about 10^5 CFU/ml, 1–2d, OD590 nm, at least two independent replicates

Compound	MIC [1] [µg/mL]	MIC [2] [µg/mL]	MIC [3] [µg/mL]	MIC [4, 16] [µg/mL]	MIC [5, 16] [µg/mL]	MIC [6, 16] [µg/mL]	MIC [7, 16] [µg/mL]	MIC [8, 16] [µg/mL]	MIC [9, 16] [µg/mL]	other results
KRRLIARILRLAARALVKKR-NH2 [SP13]	>100	>100	20							
RKKRLKLLKR LV-NH2 [SP1-D]	> 40	20	20	40	> 40	40	5	5	20	
RKKRLKLLKRLL-NH2 [SP1-1]										phytotoxicity to plant protoplasts (in words) [10]: very low phytotoxicity; Phytotoxicity: peptide concentration where protoplasts show first signs of cytoplasmic degradation [10]: 200 µg/mL; MIC ([4]; Table 4, incubation period 2d): 2.5 µg/mL; MIC ([5]; Table 4, incubation period 1d): >10 µg/mL; MIC ([6]; Table 4, incubation period 2d): 0.1 µg/mL; MIC ([8]; Table 4, incubation period 1d): 0.1 µg/mL; MIC ([9]; Table 4, incubation period 2d): <0.1 µg/mL; growth inhibition on tomato leaves [11]: 90%; Growth inhibition of bacteria/fungi on leaf surface [12]: 40%
CC(C)C[C@H](NC(=O)[C@H](CCCNC(=N)N)NC(=O)CNC(=O)CNC(=O)[C@@H](N)CCCNC(=N)N)C(=O)N[C@H]1CSSC[C@@H](C(=O)N[C@H](C(=O)NCC(=O)N[C@@H](CCCNC(=N)N)C(N)=O)C(C)C)NC(=O)[C@H](C(C)C)NC(=O)[C@@H]2CSSC[C@H](NC(=O)[C@H](Cc3ccc(O)cc3)NC1=O)C(=O)N[C@@H](CCCNC(=N)N)C(=O)N[C@@H](CCCNC(=N)N)C(=O)N[C@@H](CCCNC(=N)N)C(=O)N[C@@H](Cc1ccccc1)C(=O)N2 [Protegrin I, reference compound]										hemoglobin release ([13]; 50 µg/ml peptide, human red blood cells): 25%; Activity range: peptide concentrations necessary to inhibit growth of the listed bacteria strains ([14]; Table S5, strains listed under strain specificity): 1 to 8 µg/mL; Hemolytic activity [15]: < 80 µg/mL; Hemolytic activity: peptide concentration leading to 25% hemoglobin release: 50 µg/mL
RKRAARLLKRLV-NH2 [SP2]	>100	>100	20	2	>40	2	2	2	5	active concentrations (MIC) [14]: 1 to 5 µg/mL and 1 to 2 µg/mL
LRFLKKILKHLF-NH2 [SP10]	>100	>100	10							
KRKLIFLAAFLAALALFKKR-NH2 [SP15]	>100	>100	40	2.5	>40	20	40	>40	>40	phytotoxicity to plant protoplasts (in words) [10]: highly ph ytotoxic
LRIIKKILKKLI-NH2 [SP10-5]										phytotoxicity to plant protoplasts (in words) [10]: very low phytotoxicity; Phytotoxicity: peptide concentration where protoplasts show first signs of cytoplasmic degradation [10]: 200 µg/mL; MIC ([4]; Table 4, incubation period 2d): 0.5 µg/mL; MIC ([5]; Table 4, incubation period 1d): 2.5 µg/mL; MIC ([6]; Table 4, incubation period 2d): 0.25 µg/mL; MIC ([7]; Table 4, incubation period 1d): 0.25 µg/mL; MIC ([8]; Table 4, incubation period 1d): 0.5 µg/mL; MIC ([9]; Table 4, incubation period 2d): 0.5 µg/mL; growth inhibition on tomato leaves [11]: 90%; Growth inhibition of bacteria/fungi on leaf surface [12]: 70%
KRKLTLVFGVMAGVIGTKKR-NH2 [SP14]	>100	>100	100	20	>40	>40	40	>40	>40	
LRFLKKALKKLF-NH2 [SP10-2]										Hemolytic activity: peptide concentration leading to 25% hemoglobin release from human blood cells [13]: > 200 µg/mL; phytotoxicity to plant protoplasts (in words) [10]: very low phytotoxicity; Phytotoxicity: peptide concentration where protoplasts show first signs of cytoplasmic degradation [10]: 200 µg/mL; MIC ([4]; Table 4, incubation period 2d): 0.25 µg/mL; MIC ([5]; Table 4, incubation period 1d): 1.0 µg/mL; MIC ([6]; Table 4, incubation period 2d): 0.25 µg/mL; MIC ([7]; Table 4, incubation period 1d): 0.5 µg/mL; MIC ([8]; Table 4, incubation period 1d): 0.1 µg/mL; MIC ([9]; Table 4, incubation period 2d): 0.5 µg/mL; growth inhibition on tomato leaves [11]: 90%; Growth inhibition of bacteria/fungi on leaf surface [12]: 50%
LRALAKALKHKL-NH2 [SP11]	>100	>100	20	>40	>40	>40	5	>40	10	
LRKLKKILKKLF-NH2 [SP10-10]										Hemolytic activity: peptide concentration leading to 25% hemoglobin release from human blood cells ([13]; Table 4, 45 min, 37°C, highest concentration tested 200 µg/ml): – (no value indicates none detectable hemolytic activity up to the highest concentration tested); MIC ([4]; Table 4, incubation period 2d): 0.25 µg/mL; MIC ([5]; Table 4, incubation period 1d): 2.5 µg/mL; MIC ([6]; Table 4, incubation period 2d): 0.1 µg/mL; MIC ([7]; Table 4, incubation period 1d): 0.5 µg/mL; MIC ([8]; Table 4, incubation period 1d): 0.25 µg/mL; MIC ([9]; Table 4, incubation period 2d): 0.25 µg/mL
RKRFARFAKRAV-NH2 [SP3]	>100	>100	40	20	>40	>40	5	>40	>40	
LLKALKKLLKKLL-NH2 [SP9]	>100	>100	40	10	>40	5	10	10	>40	
KRRLAAFRAFRGALKSVLKK-NH2 [SP16]	>100	>100	20	5	>40	5	5	5	2.5	
LLIKFLKRFIKH-NH2 [SP7-D]	20	5	5	5	40	10			5	
RKKRLKLLKRLV-NH2 [SP1]	>100	>100	10							active concentrations (MIC) [14]: 1 to 5 µg/mL and 1 to 2 µg/mL
LKALRKALKHLA-NH2 [SP12]	>100	>100	20	>40	>40	20	2.5	10	>40	Hemolytic activity: peptide concentration leading to 25% hemoglobin release from human blood cells ([13]; 45 min, 37°C, Tris-buffer pH 7.4, 0, 20, 50, 100, 200 µg/ml, OD405 nm, 100% = 2% SDS, >200 = slight hemolytic activity at 200 µg/ml below threshold): >200 µg/mL
KKKAARALKRAL-NH2 [SP4]	>100	>100	40	40	>40	>40	10	>40	>40	
